Test results reported in patent US20230139171A1 (SITA Information Networking Computing UK Limited, priority 2019, published 2023).

What was measured:
[1] = system: TLR7; assay: In vivo mouse TLR7 PD model (gardiquimod challenge, plasma IL-6 and IFN-alpha by ELISA); parameters: species or system C57BL/6 mice; conditions: oral
Protocol: In Vivo Mouse TLR7 PD Model:
Adult male C57BL/6 mice were used for the experiments. Mice (7 to 10 per group) were randomized into different treatment groups based on body weight. Mice from the respective treatment groups were administered orally with vehicle or test compound. Thirty min after the oral administration of vehicle or test compound, mice were challenged with intraperitoneal injection of gardiquimod for TLR7 PD model. Ninety minutes after gardiquimod injection, mice were bled under isoflurane anaesthesia and plasma IL-6 and IFN-alpha levels were estimated by using commercially available ELISA kit (BD Biosciences, PBL Life Sciences). At the end of experiment, mean cytokine data was plotted and one way ANOVA with Dunnett's test was performed to calculate the significance of test compound treated group vs. vehicle control group. Percent inhibition of cytokine induction was calculated for test compound treated group vs vehicle control group.

[2] = molecular target: T1, human TLR9 (Homo sapiens, UniProt Q9NR96); assay: TLR9 inhibition reporter assay (HEK-Blue cells, SEAP reporter, ODN2006 stimulation); assay type: cell-based; conditions: HEK-Blue cells overexpressing human TLR9, SEAP reporter, ODN2006 5 nM
T1 construct: host or cells: HEK-Blue cells
T1 sequence (Q9NR96 26-1032): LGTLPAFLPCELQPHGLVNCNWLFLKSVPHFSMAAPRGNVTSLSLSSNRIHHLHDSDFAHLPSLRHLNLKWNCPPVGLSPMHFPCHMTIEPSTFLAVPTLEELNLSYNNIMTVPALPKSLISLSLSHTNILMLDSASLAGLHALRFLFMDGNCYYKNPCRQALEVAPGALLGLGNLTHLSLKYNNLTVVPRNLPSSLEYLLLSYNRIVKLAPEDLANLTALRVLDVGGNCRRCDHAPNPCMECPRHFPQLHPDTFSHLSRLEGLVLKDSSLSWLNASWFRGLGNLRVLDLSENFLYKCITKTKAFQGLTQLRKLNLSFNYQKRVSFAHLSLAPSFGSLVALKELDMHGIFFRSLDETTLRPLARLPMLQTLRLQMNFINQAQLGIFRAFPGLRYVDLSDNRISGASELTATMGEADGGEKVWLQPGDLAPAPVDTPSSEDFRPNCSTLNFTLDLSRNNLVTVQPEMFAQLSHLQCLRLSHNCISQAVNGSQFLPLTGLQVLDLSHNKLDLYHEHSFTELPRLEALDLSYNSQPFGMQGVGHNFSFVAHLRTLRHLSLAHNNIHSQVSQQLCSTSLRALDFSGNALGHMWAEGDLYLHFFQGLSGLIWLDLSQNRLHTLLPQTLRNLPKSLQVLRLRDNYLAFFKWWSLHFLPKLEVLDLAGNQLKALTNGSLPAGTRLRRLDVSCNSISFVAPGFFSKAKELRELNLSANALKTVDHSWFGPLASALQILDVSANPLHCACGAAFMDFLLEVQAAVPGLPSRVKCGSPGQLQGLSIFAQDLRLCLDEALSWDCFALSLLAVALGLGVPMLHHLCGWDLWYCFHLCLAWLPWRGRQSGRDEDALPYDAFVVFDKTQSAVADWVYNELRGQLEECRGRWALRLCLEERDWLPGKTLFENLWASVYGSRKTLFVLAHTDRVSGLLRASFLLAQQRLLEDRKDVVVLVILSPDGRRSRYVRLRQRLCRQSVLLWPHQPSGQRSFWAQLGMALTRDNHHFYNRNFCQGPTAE
In short: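 Screening used HEK-Blue cells overexpressing one human TLR (7, 8 or 9) and an IFN-β minimal promoter–NF-κB/AP-1 SEAP construct. Stimulation lasted 22 h at 37 °C with receptor-specific agonist: gardiquimod, R848 or ODN2006 at 7.5 μM, 15.9 μM and 5 nM.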

With `COc1cc(-c2[nH]c3sc(C4CCC(NC5COC5)CC4)nc3c2C(C)C)cn2ncnc12` (single isomer, unassigned) [Example 65, N-(4-(6-isopropyl-5-(8-methoxy-[1,2,4]triazolo[1,5-a]pyridin-6-yl)-4H-pyrrolo[3,2-d]thiazol-2-yl)cyclohexyl)oxetan-3-amine] the “% inhibition of IFN-alpha” value ([1]; dose 0.001 mg/kg) was 50%, the “% inhibition of IL6” value ([1]; dose 0.001 mg/kg) was 21% and the “% inhibition of IFN-alpha” value ([1]; dose 0.005 mg/kg) was 63%. For the same compound, the “% inhibition of IL6” value ([1]; dose 0.005 mg/kg) was 42%, the “% inhibition of IFN-alpha” value ([1]; dose 0.025 mg/kg) was 97% and the “% inhibition of IL6” value ([1]; dose 0.025 mg/kg) was 78%. For the same compound, the “% inhibition of IFN-alpha” value ([1]; dose 0.050 mg/kg) was 99%, the “% inhibition of IL6” value ([1]; dose 0.050 mg/kg) was 94% and the IC50 [2] was 10.1 µM.
